In patent US10206400B2, “Insecticidal compounds based on isoxazoline derivatives” (Syngenta Crop Protection LLC, priority 2009, dated 2019):

Columns and labels:
Type in all cases: in vivo
Tetranychus urticae = Tetranychus urticae (two-spotted spider mite) leaf disc spray test; conditions: foliar, 192 h, 200 ppm spray on bean leaf discs, mixed ages, 8 days, egg, larval and adult mortality
Excerpt: Bean leaf discs on agar in 24-well microtiter plates were sprayed with test solutions at an application rate of 200 ppm. After drying, the leaf discs are infested with mite populations of mixed ages. 8 days later, discs are checked for egg mortality, larval mortality, and adult mortality.

Plutella xylostella = Plutella xylostella (diamond back moth) artificial diet test; conditions: 144 h, 200 ppm (concentration in well 18 ppm), L2 larvae, 6 days, larval mortality, growth regulation
Experimental: (§1) 24-well microtiter plate (MTP) with artificial diet was treated with test solutions at an application rate of 200 ppm (concentration in well 18 ppm) by pipetting. After drying, the MTP's were infested with L2 larvae (7-12 per well). After an incubation period of 6 days, samples were checked for larval mortality and growth regulation.

Myzus persicae = Myzus persicae (green peach aphid), systemic test; conditions: 144 h, roots of infested pea seedlings in test solution, 6 days, mortality, special effects on the plant
Excerpt: Myzus persicae (Green peach aphid), systemic test: Roots of pea seedlings, infested with an aphid population of mixed ages, are placed directly in the test solutions at an application rate of 12.5 ppm. 6 days after introduction, samples are checked for mortality and special effects on the plant. The following compounds gave at least 80% control of Myzus persicae: A3, B2, B3, B5, B6, B7, B8, B11, B12, C1, C2, C3,C4, C5, C6, C7, D1, E1, E2, G1, G3, G5, G6, H1, H5, H6, H9, H10, H11, H12, H13, H14, H18, H19, H20, H24, H25, and H26.

Heliothis virescens = Heliothis virescens (tobacco budworm) egg/artificial diet test; conditions: 96 h, 200 ppm (concentration in well 18 ppm), eggs 0-24 h old on artificial diet, 4 days, egg mortality, larval mortality, growth regulation
Experimental: Eggs (0-24 h old) were placed in 24-well microtiter plate on artificial diet and treated with test solutions at an application rate of 200 ppm (concentration in well 18 ppm) by pipetting. After an incubation period of 4 days, samples were checked for egg mortality, larval mortality, and growth regulation.

Spodoptera littoralis = Spodoptera littoralis (Egyptian cotton leafworm) leaf disc spray test; conditions: foliar, 72 h, 200 ppm spray on cotton leaf discs, L1 larvae, mortality, feeding behavior, growth regulation 3 days after treatment
Excerpt: Cotton leaf discs were placed on agar in a 24-well microtiter plate and sprayed with test solutions at an application rate of 200 ppm. After drying, the leaf discs were infested with 5 L1 larvae. The samples were checked for mortality, feeding behavior, and growth regulation 3 days after treatment (DAT).

Diabrotica balteata = Diabrotica balteata (corn root worm) artificial diet test; conditions: 120 h, 200 ppm (concentration in well 18 ppm), L2 larvae, 5 days, larval mortality, growth regulation
Experimental: as §1, with “A 24-well” for “24-well”, “(6-10” for “(7-12”, “5” for “6”

Thrips tabaci = Thrips tabaci (onion thrips) leaf disc spray test; conditions: foliar, 168 h, 200 ppm spray on sunflower leaf discs, mixed ages, 7 days, mortality
Experimental: [The procedure below names another target; the source lists this target under the same test.] Sunflower leaf discs were placed on agar in a 24-well microtiter plate and sprayed with test solutions at an application rate of 200 ppm. After drying, the leaf discs were infested with an […] population of mixed ages. After an incubation period of 7 days, samples were checked for mortality.

CCN1OC[C@@H](NC(=O)c2ccc(C3=NO[C@@](c4cc(Cl)cc(Cl)c4)(C(F)(F)F)C3)cc2C)C1=O [Compound G1, 4-[5-(3,5-dichloro-phenyl)-5-(S)-trifluoromethyl-4,5-dihydro-isoxazol-3-yl]-2-methyl-N—((R)-2-ethyl-3-oxo-isoxazolidin-4-yl)-benzamide]
≥ 80%: pest or weed control at 200 ppm (Tetranychus urticae) | pest or weed control at 200 ppm (Plutella xylostella) | pest or weed control at 12.5 ppm (Myzus persicae) | pest or weed control at 200 ppm (Heliothis virescens) | pest or weed control at 200 ppm (Spodoptera littoralis) | pest or weed control at 200 ppm (Diabrotica balteata) | pest or weed control at 200 ppm (Thrips tabaci)

CCN1OC[C@H](NC(=O)c2ccc(C3=NO[C@@](c4cc(Cl)cc(Cl)c4)(C(F)(F)F)C3)cc2C)C1=O [Compound G3, 4-[5-(3,5-dichloro-phenyl)-5-(S)-trifluoromethyl-4,5-dihydro-isoxazol-3-yl]-2-methyl-N—((S)-2-ethyl-3-oxo-isoxazolidin-4-yl)-benzamide]
≥ 80%: pest or weed control at 200 ppm (Tetranychus urticae) | pest or weed control at 200 ppm (Plutella xylostella) | pest or weed control at 12.5 ppm (Myzus persicae) | pest or weed control at 200 ppm (Heliothis virescens) | pest or weed control at 200 ppm (Spodoptera littoralis) | pest or weed control at 200 ppm (Diabrotica balteata) | pest or weed control at 200 ppm (Thrips tabaci)

Cc1cc(C2=NO[C@@](c3cc(Cl)cc(Cl)c3)(C(F)(F)F)C2)ccc1C(=O)N[C@@H]1CON(CC(F)F)C1=O [Compound G5, 4-[5-(3,5-Dichloro-phenyl)-5-(S)-trifluoromethyl-4,5-dihydro-isoxazol-3-yl]-2-methyl-N—((R)-2-(2,2-difluoroethyl)-3-oxo-isoxazolidin-4-yl)-benzamide]
≥ 80%: pest or weed control at 200 ppm (Tetranychus urticae) | pest or weed control at 200 ppm (Plutella xylostella) | pest or weed control at 12.5 ppm (Myzus persicae) | pest or weed control at 200 ppm (Heliothis virescens) | pest or weed control at 200 ppm (Spodoptera littoralis) | pest or weed control at 200 ppm (Diabrotica balteata) | pest or weed control at 200 ppm (Thrips tabaci)
